How the values were obtained:
Format in all cases: cell-based
IL-17FF = IL-17FF production by PHA-stimulated human PBMC (human IL-17F ELI-Pair); conditions: PHA-stimulated human PBMC, 48 hours; column B; read-out: IC50 (IL-17FF)
In short: (§1)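 Healthy-donor PBMC (1×10^5 cells/well) were activated with 2 μg/ml PHA and cultured with test compounds for 48 hours; cytokines were then quantified in supernatants by the respective immunoassay. Screening used 10, 1, 0.1 and 0.01 μM; IC50 came from semilogarithmic compound titration.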

IFN-γ = IFN-γ production by PHA-stimulated human PBMC (OptEIA human IFN-g ELISA); conditions: PHA-stimulated human PBMC, 48 hours; column C; read-out: IC50 (IFNγ)
In short: as §1

[1] = system: PBMC from healthy human donors; test: T cell proliferation assay (PHA-stimulated human PBMC, BrdU ELISA); conditions: PHA-stimulated human PBMC, 48 hours, column D, read-out: IC50 (Tcell proliferation)
In short: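 Healthy-donor PBMC isolated on Ficoll, seeded at 1×10⁵ cells/well in RPMI with 10% dialysed FCS, stimulated with 2 μg/ml PHA in presence of test compound. Proliferation read after 48 hours by BrdU-incorporation ELISA.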

SMILES | IC50 (IL-17FF) | IC50 (IFN-γ) | IC50 [1]
O=C(NCc1ccccc1C(F)(F)F)c1c(-c2c(F)cccc2Cl)noc1-c1cnn(-c2ccccc2F)c1C(F)(F)F [Example I-23, 3-(2-chloro-6-fluorophenyl)-5-(1-(2-fluorophenyl)-5-(trifluoromethyl)-1H-pyrazol-4-yl)-N-(2-(trifluoromethyl)ben-zyl)isoxazole-4-carboxamide] | 1000 to 10000 nM | 100 to 1000 nM | 1000 to 10000 nM
CCOC(=O)c1c(-c2onc(-c3c(F)cccc3Cl)c2C(=O)OC)cnn1-c1ccc(F)cc1 [Example I-26, methyl 3-(2-chloro-6-fluorophenyl)-5-(5-(ethoxycarbonyl)-1-(4-fluorophenyl)-1H-pyrazol-4-yl)isoxazole-4-carboxylate] | 1000 to 10000 nM | 1000 to 10000 nM | 1000 to 10000 nM
COC(=O)c1c(-c2c(F)cccc2Cl)noc1-c1cnn(CC(C)C)c1C(F)(F)F [Example I-28] | 10 to 100 nM | 10 to 100 nM | 100 to 1000 nM
CCOC(=O)c1c(-c2onc(-c3c(F)cccc3Cl)c2C(=O)OC)cnn1-c1ccc(F)cc1F [Example I-35, methyl 3-(2-chloro-6-fluorophenyl)-5-(1-(2,4-difluorophenyl)-5-(ethoxycarbonyl)-1H-pyrazol-4-yl)isoxazole-4-carboxylate] | 100 to 1000 nM | 100 to 1000 nM | 100 to 1000 nM
CCOC(=O)c1c(-c2onc(-c3c(F)cccc3Cl)c2C(=O)OC)cnn1-c1ccccc1F [Example I-41, methyl 3-(2-chloro-6-phenyl)-5-(5-(ethoxycarbonyl)-1-(2-fluorophenyl)-1H-pyrazol-4-yl)isoxazole-4-carboxylate] | 100 to 1000 nM | 100 to 1000 nM | 100 to 1000 nM
CCOC(=O)c1c(-c2c(F)cccc2Cl)noc1-c1cnn(-c2ccccc2F)c1C(F)(F)F [Example I-42, Ethyl 3-(2-chloro-6-fluorophenyl)-5-[1-(2-fluorophenyl)-5-(trifluoromethyl)-1H-pyrazol-4-yl]isoxazole-4-carboxylate] | 10 to 100 nM | < 10 nM | 10 to 100 nM
CC(C)OC(=O)c1c(-c2c(F)cccc2Cl)noc1-c1cnn(-c2ccccc2F)c1C(F)(F)F [Example I-43, i-Propyl 3-(2-chloro-6-fluorophenyl)-5-[1-(2-fluorophenyl)-5-(trifluoromethyl)-1H-pyrazol-4-yl]isoxazole-4-carboxylate] | 100 to 1000 nM | 10 to 100 nM | 10 to 100 nM
COC(=O)c1c(-c2c(F)cccc2Cl)noc1-c1cnn(-c2c(F)c(F)cc(F)c2F)c1C(F)(F)F [Example I-47, methyl 3-(2-chloro-6-fluorophenyl)-5-(1-(2,3,5,6-tetrafluorophenyl)-5-(trifluoromethyl)-1H-pyrazol-4-yl)isoxale-4-carboxylate] | 100 to 1000 nM | 100 to 1000 nM | 100 to 1000 nM
N#Cc1c(-c2c(F)cccc2Cl)noc1-c1cnn(-c2cccc(Cl)c2)c1C(F)(F)F [Example I-49, 3-(2-chloro-6-fluorophenyl)-5-(1-(3-chlorophenyl)-5-(trifluoromethyl)-1H-pyrazol-4-yl)isoxazole-4-carbonitrile] | 100 to 1000 nM | 100 to 1000 nM | 100 to 1000 nM
COC(=O)c1c(-c2c(F)cccc2Cl)noc1-c1cnn(-c2cc(F)cc(F)c2)c1C(F)(F)F [Example I-50, methyl 3-(2-chloro-6-fluorophenyl)-5-(1-(3,5-difluorophenyl)-5-(trifluoromethyl)-1H-pyrazol-4-yl)isoxazole-4-carboxylate] | < 10 nM | < 10 nM | < 10 nM
CNC(=O)c1c(-c2c(F)cccc2Cl)noc1-c1cnn(-c2ccc(F)cc2)c1C(F)(F)F [Example I-55, 3-(2-chloro-6-fluorophenyl)-5-(1-(4-fluorophenyl)-5-(trifluoromethyl)-1H-pyrazol-4-yl)-N-methylisoxazole-4-carboxamide] | 100 to 1000 nM | 100 to 1000 nM | 100 to 1000 nM
CNC(=O)c1c(-c2c(F)cccc2Cl)noc1-c1cnn(-c2ccccc2)c1C(F)(F)F [Example I-59, 3-(2-chloro-6-fluorophenyl)-N-methyl-5-(1-phenyl-5-(trifluoromethyl)-1H-pyrazol-4-yl)isoxazole-4-carboxamide] | 100 to 1000 nM | 100 to 1000 nM | 100 to 1000 nM
COC(=O)c1c(-c2ccccc2)noc1-c1cnn(-c2ccccc2F)c1C(F)(F)F [Example I-61, methyl 5-(1-(2-fluorophenyl)-5-(trifluoromethyl)-1H-pyrazol-4-yl)-3-phenylisoxazole-4-carboxylate] | 1000 to 10000 nM | 1000 to 10000 nM | 1000 to 10000 nM

Further lines, with some results ahead:

IC50 (IL-17FF) | IC50 (IFN-γ) | SMILES | IC50 [1]
10 to 100 nM | 10 to 100 nM | COC(=O)c1c(-c2c(F)cccc2Cl)noc1-c1cnn(CC(F)(F)F)c1C(F)(F)F [Example I-65, methyl 3-(2-chloro-6-fluorophenyl)-5-(1-(2,2,2-trifluoroethyl)-5-(trifluoromethyl)-1H-pyrazol-4-yl)isoxazole-4-carboxylate] | 10 to 100 nM
1000 to 10000 nM | 100 to 1000 nM | COC(=O)c1c(-c2c(F)cccc2Cl)noc1-c1cnn(C(C)C)c1C(F)(F)F [Example I-66, methyl 3-(2-chloro-6-fluorophenyl)-5-(1-isopropyl-5-(trifluoromethyl)-1H-pyrazol-4-yl)isoxazole-4-carboxylate] | 1000 to 10000 nM
10 to 100 nM | 10 to 100 nM | COC(=O)c1c(-c2c(F)cccc2Cl)noc1-c1cnn(-c2cc(Cl)cc(Cl)c2)c1C(F)(F)F [Example I-68, methyl 3-(2-chloro-6-fluorophenyl)-5-(1-(3,5-dichlorophenyl)-5-(trifluoromethyl)-1H-pyrazol-4-yl)isoxazole-4-carboxylate] | 10 to 100 nM
100 to 1000 nM | 100 to 1000 nM | COC(=O)c1c(-c2c(F)cccc2Cl)noc1-c1cnn(-c2c(Cl)cccc2Cl)c1C(F)(F)F [Example I-70, methyl 3-(2-chloro-6-fluorophenyl)-5-(1-(2,6-dichlorophenyl)-5-(trifluoromethyl)-1H-pyrazol-4-yl)isoxazole-4-carboxylate] | 100 to 1000 nM
1000 to 10000 nM | 100 to 1000 nM | CNC(=S)c1c(-c2c(F)cccc2Cl)noc1-c1cnn(-c2ccc(F)cc2)c1C(F)(F)F [Example I-76, 3-(2-chloro-6-fluorophenyl)-5-(1-(4-fluorophenyl)-5-(trifluoromethyl)-1H-pyrazol-4-yl)-N-methylisoxazole-4-carbothioamide] | 1000 to 10000 nM
1000 to 10000 nM | 100 to 1000 nM | COC(=O)c1c(-c2c(F)cccc2Cl)noc1-c1cnn(-c2ccc(C(C)(C)C)cc2)c1C(F)(F)F [Example I-81, methyl 5-(1-(4-tert-butylphenyl)-5-(trifluoromethyl)-1H-pyrazol-4-yl)-3-(2-chloro-6-fluorophenyl)isoxazole-4-carboxylate] | 1000 to 10000 nM
< 10 nM | < 10 nM | COC(=O)c1c(-c2c(F)cccc2Cl)noc1-c1cnn(-c2ccccn2)c1C(F)(F)F [Example I-84, methyl 3-(2-chloro-6-fluorophenyl)-5-(1-(pyridin-2-yl)-5-(trifluoromethyl)-1H-pyrazol-4-yl)isoxazole-4-carboxylate] | < 10 nM
1000 to 10000 nM | 1000 to 10000 nM | COC(=O)c1c(-c2c(F)cccc2Cl)noc1-c1cnn(-c2ccc(S(C)(=O)=O)cc2)c1C(F)(F)F [Example I-85, methyl 3-(2-chloro-6-fluorophenyl)-5-(1-(4-(methylsulfonyl)phenyl)-5-(trifluoromethyl)-1H-pyrazol-4-yl)isoxazole-4-carboxylate] | 1000 to 10000 nM
10 to 100 nM | 100 to 1000 nM | COC(=O)c1c(-c2c(F)cccc2Cl)noc1-c1cnn(-c2ccccc2F)c1 [Example I-89, Methyl 3-(2-chloro-6-fluorophenyl)-5-[1-(2-fluorophenyl)-1H-pyrazol-4-yl]isoxazole-4-carboxylate] | 100 to 1000 nM
100 to 1000 nM | 10 to 100 nM | CCOC(=O)c1c(-c2ccccc2F)noc1-c1cnn(-c2cccc(F)c2)c1C(F)(F)F [Example I-90, ethyl 3-(2-fluorophenyl)-5-(1-(3-fluorophenyl)-5-(trifluoromethyl)-1H-pyrazol-4-yl)isoxazole-4-carboxylate] | 100 to 1000 nM
100 to 1000 nM | 100 to 1000 nM | COC(=O)c1c(-c2ccccc2F)noc1-c1cnn(-c2cccc(F)c2)c1C(F)(F)F [Example I-92, methyl 3-(2-fluorophenyl)-5-(1-(3-fluorophenyl)-5-(trifluoromethyl)-1H-pyrazol-4-yl)isoxazole-4-carboxylate] | 100 to 1000 nM
1000 to 10000 nM | 1000 to 10000 nM | CON(C)C(=O)c1c(-c2ccccc2F)noc1-c1cnn(-c2cccc(F)c2)c1C(F)(F)F [Example I-94, 3-(2-fluorophenyl)-5-(1-(3-fluorophenyl)-5-(trifluoromethyl)-1H-pyrazol-4-yl)-N-methoxy-N-methylisoxazole-4-carboxamide] | 1000 to 10000 nM
< 10 nM | < 10 nM | COC(=O)c1c(-c2ccccc2Cl)noc1-c1cnn(-c2cccc(F)c2)c1C(F)(F)F [Example I-95, methyl 3-(2-chlorophenyl)-5-(1-(3-fluorophenyl)-5-(trifluoromethyl)-1H-pyrazol-4-yl)isoxazole-4-carboxylate] | < 10 nM
100 to 1000 nM | 100 to 1000 nM | CNC(=O)c1c(-c2ccccc2Cl)noc1-c1cnn(-c2cccc(F)c2)c1C(F)(F)F [Example I-96, 3-(2-chlorophenyl)-5-(1-(3-fluorophenyl)-5-(trifluoro-methyl)-1H-pyrazol-4-yl)-N-methylisoxazole-4-carboxamide] | 100 to 1000 nM

Reference: US8354436B2 (4SC Discovery GmbH, priority 2011, dated 2013)
